Target: T1, epidermal growth factor receptor tyrosine kinase (EGFR-TK) (Homo sapiens, UniProt P00533)
T1 construct: purified Epidermal Growth Factor Receptor (Sigma-Aldrich)
Assay: ELISA kinase inhibition assay with purified EGFR
Format: biochemical

T1 sequence (P00533 25-1210): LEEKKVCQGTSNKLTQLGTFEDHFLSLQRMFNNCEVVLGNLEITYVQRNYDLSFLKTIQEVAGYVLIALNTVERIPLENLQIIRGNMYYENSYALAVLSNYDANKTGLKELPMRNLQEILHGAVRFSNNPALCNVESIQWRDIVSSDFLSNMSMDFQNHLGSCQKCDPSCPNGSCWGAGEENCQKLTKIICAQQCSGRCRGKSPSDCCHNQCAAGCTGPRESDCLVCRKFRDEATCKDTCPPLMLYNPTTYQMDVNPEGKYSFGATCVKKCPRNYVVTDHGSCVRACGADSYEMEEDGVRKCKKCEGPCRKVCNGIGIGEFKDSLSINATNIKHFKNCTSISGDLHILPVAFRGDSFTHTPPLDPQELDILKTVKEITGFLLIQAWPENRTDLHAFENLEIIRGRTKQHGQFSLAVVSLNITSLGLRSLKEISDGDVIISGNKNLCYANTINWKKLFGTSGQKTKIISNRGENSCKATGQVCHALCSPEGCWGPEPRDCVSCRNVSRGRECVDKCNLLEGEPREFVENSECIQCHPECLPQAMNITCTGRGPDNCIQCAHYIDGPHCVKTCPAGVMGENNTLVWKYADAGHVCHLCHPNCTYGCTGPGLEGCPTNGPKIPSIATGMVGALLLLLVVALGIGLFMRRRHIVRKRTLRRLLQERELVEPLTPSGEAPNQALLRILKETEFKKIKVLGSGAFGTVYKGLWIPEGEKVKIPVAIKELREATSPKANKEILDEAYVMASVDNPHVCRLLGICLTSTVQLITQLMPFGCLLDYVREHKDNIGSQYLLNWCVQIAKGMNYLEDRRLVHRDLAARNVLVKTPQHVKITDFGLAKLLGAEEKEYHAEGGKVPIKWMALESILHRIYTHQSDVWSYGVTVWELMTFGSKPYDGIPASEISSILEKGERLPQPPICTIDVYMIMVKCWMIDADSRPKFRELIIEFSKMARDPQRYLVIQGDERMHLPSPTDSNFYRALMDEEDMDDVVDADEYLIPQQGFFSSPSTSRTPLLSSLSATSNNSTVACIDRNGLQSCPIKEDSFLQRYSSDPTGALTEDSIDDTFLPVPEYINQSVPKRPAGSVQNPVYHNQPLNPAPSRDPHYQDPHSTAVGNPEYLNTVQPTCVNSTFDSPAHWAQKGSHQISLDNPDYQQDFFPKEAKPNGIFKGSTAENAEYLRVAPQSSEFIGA

IC50: 0.0525 µM
SMILES: Fc1ccc(-c2nc(Nc3cc(Br)cc4cc(-c5ccc(F)cc5)[nH]c34)c3ccccc3n2)cc1 [4f, N-(5-Bromo-2-(4-fluorophenyl)-1H-indol-7-yl)-2-(4-fluorophenyl)quinazolin-4-amine]

Reference: PMC6121530, “Synthesis, Biological Evaluation and Molecular Docking of Novel Indole-Aminoquinazoline Hybrids for Anticancer Properties” (International Journal of Molecular Sciences, 2018)
